# Assays:
# rat [1] = conditions: Subchronic oral toxicity in rodents, fischer, Feed, dose end: 13 week, group: systemic
# rat [2] = conditions: Prenatal developmental toxicity study, fischer, Oral, Gavage/Intubation, dose end: 15 GD
# rat [3] = conditions: Prenatal developmental toxicity study, wistar, Oral, Water, dose end: 19 GD
# mouse = conditions: Subchronic oral toxicity in rodents, b6c3f1, Feed, dose end: 13 week, group: systemic, systemic / organ weight / liver / absolute + systemic / organ weight / liver / relative to body weight + systemic / pathology microscopic / …
# rabbit = conditions: Prenatal developmental toxicity study, new zealand white, Oral, Gavage/Intubation, dose end: 18 GD, group: maternal
# rat [4] = conditions: Multigenerational reproductive toxicity study, wistar, Oral, Water, dose end: 1 generation
# [5] = systemic / clinical chemistry / cholesterol / cholesterol
# [6] = group: developmental, developmental / developmental malformation / bone / delayed ossification
# [7] = group: developmental, developmental / developmental malformation / bone / delayed ossification + developmental / developmental malformation / bone / supernumerary…
# [8] = group: maternal, systemic / in life observation / clinical signs / ocular discharge + systemic / in life observation / clinical signs / red or crusty …
# [9] = group: developmental, developmental / developmental malformation / bone / incomplete ossification + developmental / developmental malformation / bone / wavy
# [10] = group: maternal, reproductive / reproductive performance / pregnancy / pregnancy + systemic / in life observation / body weight / body weight + systemic / in…
# [11] = reproductive / reproductive performance / aborted / aborted + systemic / in life observation / mortality / mortality
# [12] = group: offspring, developmental / developmental landmark / eye opening / eye opening + developmental / developmental landmark / incisor eruption / incisor …
# [13] = group: offspring, developmental / developmental malformation / bone / kinked
# [14] = group: parental, systemic / in life observation / body weight / body weight + systemic / in life observation / body weight / body weight gain + systemic / in…
# [15] = group: reproductive, reproductive / reproductive performance / implantations / implantations + reproductive / reproductive performance / resorptions / …
smiles,measurement,setting,value
CCCCC(CC)C(=O)O (stereo not drawn) [2-Ethylhexanoic acid],LEL,rat [1]; [5],61 mg/kg/day
same,NEL,rat [1]; [5],< 61 mg/kg/day
same,LOAEL,rat [1]; systemic / organ weight / liver / relative to body weight + systemic / pathology microscopic / liver / hypertrophy,303 mg/kg/day
same,NOAEL,rat [1]; systemic / organ weight / liver / relative to body weight + systemic / pathology microscopic / liver / hypertrophy + systemic / clinical …,61 mg/kg/day
same,LEL,rat [2]; [6],250 mg/kg/day
same,LOAEL,rat [2]; [6],250 mg/kg/day
same,NEL,rat [2]; [7],100 mg/kg/day
same,NOAEL,rat [2]; [7],100 mg/kg/day
same,NEL,"rat [2]; group: maternal, reproductive / reproductive performance / postimplantation loss / postimplantation loss + reproductive / reproductive performance / …",250 mg/kg/day
same,LEL,rat [2]; [8],500 mg/kg/day
same,LOAEL,rat [2]; [8],500 mg/kg/day
same,NOAEL,rat [2]; [8],250 mg/kg/day
same,LEL,rat [3]; [9],100 mg/kg/day
same,LOAEL,rat [3]; [9],100 mg/kg/day
same,NEL,rat [3]; [9],< 100 mg/kg/day
same,NOAEL,rat [3]; [9],< 100 mg/kg/day
same,LEL,"rat [3]; group: maternal, reproductive / reproductive performance / pregnancy / pregnancy",300 mg/kg/day
same,LOAEL,rat [3]; [10],> 600 mg/kg/day
same,NEL,rat [3]; [10],100 mg/kg/day
same,NOAEL,rat [3]; [10],≥ 600 mg/kg/day
same,LEL,mouse,885 mg/kg/day
same,LOAEL,mouse,885 mg/kg/day
same,NEL,mouse,180 mg/kg/day
same,NOAEL,mouse,180 mg/kg/day
same,LEL,rabbit; [11],125 mg/kg/day
same,LOAEL,rabbit; [11],125 mg/kg/day
same,NOAEL,rabbit; reproductive / reproductive performance / aborted / aborted + systemic / in life observation / mortality / mortality + systemic / in life …,25 mg/kg/day
same,LOAEL,rat [4]; [12],> 600 mg/kg/day
same,NOAEL,rat [4]; [12],≥ 600 mg/kg/day
same,LEL,rat [4]; [13],100 mg/kg/day
same,NEL,rat [4]; [13],< 100 mg/kg/day
same,LOAEL,rat [4]; [14],> 600 mg/kg/day
same,NEL,rat [4]; [14],100 mg/kg/day
same,NOAEL,rat [4]; [14],≥ 600 mg/kg/day
same,LEL,"rat [4]; group: parental, systemic / pathology microscopic / uterus / dilatation + systemic / pathology microscopic / vagina / hyperplasia + systemic / pathology …",300 mg/kg/day
same,LEL,rat [4]; [15],600 mg/kg/day
same,LOAEL,rat [4]; [15],> 600 mg/kg/day
same,NOAEL,rat [4]; [15],≥ 600 mg/kg/day
